The values below come from patent publication US8691865B2 (AbbVie Inc., priority 2008, dated 2014).

Molecules are shown by their SMILES.

The target in the first experiment is human Cav2.2 (Homo sapiens, UniProt Q00975). In words: Assessment of calcium channel activity using FLIPR (Ca2+ influx in IMR32 cells).
Sequence of human Cav2.2 (Q00975 whole entry): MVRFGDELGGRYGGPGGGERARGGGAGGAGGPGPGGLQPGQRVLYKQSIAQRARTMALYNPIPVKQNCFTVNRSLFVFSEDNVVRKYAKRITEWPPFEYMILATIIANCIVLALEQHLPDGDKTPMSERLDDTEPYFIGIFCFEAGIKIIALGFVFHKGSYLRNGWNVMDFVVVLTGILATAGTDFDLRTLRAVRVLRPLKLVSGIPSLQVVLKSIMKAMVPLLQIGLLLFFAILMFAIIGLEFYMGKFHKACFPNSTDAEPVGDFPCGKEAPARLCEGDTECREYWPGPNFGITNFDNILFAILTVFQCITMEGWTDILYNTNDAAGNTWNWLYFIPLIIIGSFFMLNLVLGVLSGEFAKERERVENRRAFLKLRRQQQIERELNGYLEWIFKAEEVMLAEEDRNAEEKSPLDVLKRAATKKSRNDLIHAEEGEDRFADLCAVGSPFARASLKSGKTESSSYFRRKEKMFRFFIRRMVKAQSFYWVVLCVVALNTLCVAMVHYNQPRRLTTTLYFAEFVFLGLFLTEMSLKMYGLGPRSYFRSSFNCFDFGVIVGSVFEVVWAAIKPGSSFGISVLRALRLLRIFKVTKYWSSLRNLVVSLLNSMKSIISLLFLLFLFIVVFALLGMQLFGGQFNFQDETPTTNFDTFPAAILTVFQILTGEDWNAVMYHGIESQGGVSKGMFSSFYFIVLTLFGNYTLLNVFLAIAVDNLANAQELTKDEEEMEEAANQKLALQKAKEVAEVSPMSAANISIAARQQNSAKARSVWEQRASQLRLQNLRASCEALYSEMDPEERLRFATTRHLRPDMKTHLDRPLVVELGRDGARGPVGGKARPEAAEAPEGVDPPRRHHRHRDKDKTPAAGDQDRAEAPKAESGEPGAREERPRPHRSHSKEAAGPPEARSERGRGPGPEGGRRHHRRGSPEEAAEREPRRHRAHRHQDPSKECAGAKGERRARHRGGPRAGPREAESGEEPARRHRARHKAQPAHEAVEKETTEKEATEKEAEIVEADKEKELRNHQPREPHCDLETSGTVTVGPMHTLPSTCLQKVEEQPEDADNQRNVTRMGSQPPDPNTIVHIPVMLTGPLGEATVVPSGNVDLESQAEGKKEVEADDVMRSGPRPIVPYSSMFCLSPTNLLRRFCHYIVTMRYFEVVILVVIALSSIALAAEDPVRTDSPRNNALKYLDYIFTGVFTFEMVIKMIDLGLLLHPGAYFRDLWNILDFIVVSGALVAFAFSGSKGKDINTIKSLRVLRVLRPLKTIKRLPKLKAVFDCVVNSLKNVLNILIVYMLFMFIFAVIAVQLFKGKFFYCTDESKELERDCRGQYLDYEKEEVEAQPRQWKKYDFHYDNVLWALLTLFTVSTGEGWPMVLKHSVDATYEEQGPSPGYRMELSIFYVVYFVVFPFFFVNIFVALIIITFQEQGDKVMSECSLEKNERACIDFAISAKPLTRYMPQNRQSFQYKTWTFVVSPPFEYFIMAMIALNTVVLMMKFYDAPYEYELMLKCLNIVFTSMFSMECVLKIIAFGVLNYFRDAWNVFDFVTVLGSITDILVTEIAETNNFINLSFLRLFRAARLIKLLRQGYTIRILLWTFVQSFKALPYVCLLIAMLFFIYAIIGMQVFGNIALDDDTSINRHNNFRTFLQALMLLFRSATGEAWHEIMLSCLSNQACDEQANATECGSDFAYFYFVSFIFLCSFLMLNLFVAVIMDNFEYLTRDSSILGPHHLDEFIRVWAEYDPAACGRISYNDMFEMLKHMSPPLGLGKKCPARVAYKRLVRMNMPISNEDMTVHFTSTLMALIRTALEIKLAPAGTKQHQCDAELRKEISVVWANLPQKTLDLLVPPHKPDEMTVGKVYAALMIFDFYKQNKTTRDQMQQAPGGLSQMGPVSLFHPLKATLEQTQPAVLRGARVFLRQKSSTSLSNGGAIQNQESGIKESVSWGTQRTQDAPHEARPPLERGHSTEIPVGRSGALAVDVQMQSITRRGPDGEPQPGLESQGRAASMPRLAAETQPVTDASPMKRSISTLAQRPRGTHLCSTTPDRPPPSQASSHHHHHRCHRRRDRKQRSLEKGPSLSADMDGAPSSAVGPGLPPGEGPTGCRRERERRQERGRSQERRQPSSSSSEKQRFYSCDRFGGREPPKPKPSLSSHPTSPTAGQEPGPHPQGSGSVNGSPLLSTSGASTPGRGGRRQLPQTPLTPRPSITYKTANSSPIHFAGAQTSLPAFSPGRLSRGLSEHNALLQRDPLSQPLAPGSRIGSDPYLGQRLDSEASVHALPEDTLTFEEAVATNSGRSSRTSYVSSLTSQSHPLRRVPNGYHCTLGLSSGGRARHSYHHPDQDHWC
Sequence of human Cav2.2 (P54289 25-956 partner limits assumed): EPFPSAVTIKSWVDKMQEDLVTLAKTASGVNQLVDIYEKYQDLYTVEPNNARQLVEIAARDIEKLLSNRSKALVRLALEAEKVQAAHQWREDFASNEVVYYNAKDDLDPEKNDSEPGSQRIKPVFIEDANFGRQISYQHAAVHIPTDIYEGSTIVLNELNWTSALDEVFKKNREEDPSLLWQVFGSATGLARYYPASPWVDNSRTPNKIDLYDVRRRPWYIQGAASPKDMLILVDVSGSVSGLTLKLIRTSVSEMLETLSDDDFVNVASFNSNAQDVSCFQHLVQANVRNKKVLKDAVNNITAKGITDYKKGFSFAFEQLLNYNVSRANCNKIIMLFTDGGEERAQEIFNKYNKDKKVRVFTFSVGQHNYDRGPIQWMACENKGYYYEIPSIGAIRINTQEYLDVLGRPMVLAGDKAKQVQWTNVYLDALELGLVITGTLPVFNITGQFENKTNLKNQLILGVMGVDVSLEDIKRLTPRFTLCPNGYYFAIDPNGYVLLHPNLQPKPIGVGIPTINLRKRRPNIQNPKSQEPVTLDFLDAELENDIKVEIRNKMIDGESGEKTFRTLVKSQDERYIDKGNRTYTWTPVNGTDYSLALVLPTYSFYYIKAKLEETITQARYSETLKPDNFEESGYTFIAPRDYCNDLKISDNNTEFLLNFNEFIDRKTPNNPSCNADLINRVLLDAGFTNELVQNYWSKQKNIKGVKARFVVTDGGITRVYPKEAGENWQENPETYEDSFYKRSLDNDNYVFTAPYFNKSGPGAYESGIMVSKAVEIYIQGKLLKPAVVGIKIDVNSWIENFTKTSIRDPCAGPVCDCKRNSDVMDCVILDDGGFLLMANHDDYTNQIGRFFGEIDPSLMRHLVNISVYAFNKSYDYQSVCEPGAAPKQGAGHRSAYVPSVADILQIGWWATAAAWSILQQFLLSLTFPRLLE
Sequence of human Cav2.2 (P54289 957-1103 partner limits assumed): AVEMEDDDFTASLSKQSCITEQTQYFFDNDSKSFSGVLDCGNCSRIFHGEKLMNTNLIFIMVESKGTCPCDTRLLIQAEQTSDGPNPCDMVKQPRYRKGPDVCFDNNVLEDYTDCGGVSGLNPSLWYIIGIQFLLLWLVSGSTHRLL
Sequence of human Cav2.2 (P54284 whole entry partner): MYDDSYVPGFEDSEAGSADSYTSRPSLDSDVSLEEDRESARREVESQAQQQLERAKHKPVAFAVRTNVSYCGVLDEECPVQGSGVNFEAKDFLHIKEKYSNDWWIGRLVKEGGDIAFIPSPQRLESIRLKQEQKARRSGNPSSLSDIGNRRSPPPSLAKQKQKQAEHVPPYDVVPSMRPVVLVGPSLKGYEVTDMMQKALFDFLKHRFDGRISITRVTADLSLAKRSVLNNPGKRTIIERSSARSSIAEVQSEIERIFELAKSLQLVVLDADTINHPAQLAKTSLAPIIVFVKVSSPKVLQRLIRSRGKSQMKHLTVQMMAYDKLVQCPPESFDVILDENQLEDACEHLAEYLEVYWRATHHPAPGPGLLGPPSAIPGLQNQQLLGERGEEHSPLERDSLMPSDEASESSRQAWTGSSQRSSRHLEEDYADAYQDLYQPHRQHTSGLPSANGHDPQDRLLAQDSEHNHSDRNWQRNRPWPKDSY
Conditions: not given
It counts as cell-based. The procedure, abridged: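 IC50 values derive from nonlinear sigmoidal fitting of percent inhibition, relative to inhibitor-free activity, of Ca2+ influx read by FLIPR. Cells were IMR32 human neuroblastoma, plated at 1−1.2×10^5 per well and grown 48 h at 37 °C.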
The IC50 is the concentration at which inhibition is half-maximal. Consider `O=S(=O)(N[C@@H]1CC[C@H]2CN(CCC(c3ccc(F)cc3)c3ccc(F)cc3)C[C@H]21)c1cccc(C(F)(F)F)c1` [Example 193, N-{(3aS,4R,6aR)-2-[3,3-bis(4-fluorophenyl)propyl]octahydrocyclopenta[c]pyrrol-4-yl}-3-(trifluoromethyl)benzenesulfonamide], for which the IC50 came out at 0.57 µM. On the same count and under the same terms, the result for `O=C(N[C@H]1CC[C@@H]2CN(c3ccc(C(F)(F)F)cn3)C[C@@H]21)[C@@H]1Cc2ccccc2N1` [Example 604, (2S)-N-{(3aR,4S,6aS)-2-[5-(trifluoromethyl)pyridin-2-yl]octahydrocyclopenta[c]pyrrol-4-yl}indoline-2-carboxamide] reads 2.78 µM. For `CN[C@@H](CC(C)C)C(=O)N[C@H]1CC[C@@H]2CN(c3ccc(C(F)(F)F)nn3)C[C@@H]21` [Example 724, N^2-methyl-N-{(3aR,4S,6aS)-2-[6-(trifluoromethyl)pyridazin-3-yl]octahydrocyclopenta[c]pyrrol-4-yl}-L-leucinamide], the IC50 is 22.3 µM. Regarding `CN[C@@H](CC(C)C)C(=O)N[C@H]1CC[C@@H]2CN(c3cccc(Cl)c3)C[C@@H]21` [Example 628, N-[(3aR,4S,6aS)-2-(3-chlorophenyl)octahydrocyclopenta[c]pyrrol-4-yl]-N^2-methyl-L-leucinamide], the concentration for half-maximal inhibition (IC50) stood at 3.53 µM. The same measure, in the same setting: under `Fc1ccc2c(CN[C@H]3CC[C@@H]4CN(c5cccc(C(F)(F)F)n5)C[C@@H]43)c[nH]c2c1` [Example 686, (3aR,4S,6aS)-N-[(6-fluoro-1H-indol-3-yl)methyl]-2-[6-(trifluoromethyl)pyridin-2-yl]octahydrocyclopenta[c]pyrrol-4-amine] stands 0.88 µM.

Turning to `CN[C@@H](CC(C)C)C(=O)N[C@H]1CC[C@@H]2CN(c3ccccc3F)C[C@@H]21` [Example 619, N-[(3aR,4S,6aS)-2-(2-fluorophenyl)octahydrocyclopenta[c]pyrrol-4-yl]-N^2-methyl-L-leucinamide], the IC50 amounted to 2.84 µM.

For `COc1ccc(-c2n[nH]cc2CN[C@H]2CC[C@@H]3CN(c4cccc(C(F)(F)F)n4)C[C@@H]32)cc1` [Example 681, (3aR,4S,6aS)-N-{[3-(4-methoxyphenyl)-1H-pyrazol-4-yl]methyl}-2-[6-(trifluoromethyl)pyridin-2-yl]octahydrocyclopenta[c]pyrrol-4-amine], the IC50 is 0.98 µM. Turning to `O=C(N[C@@H]1CC[C@H]2CN(Cc3cccc(C(F)(F)F)c3)C[C@H]21)C(C1CCCCC1)C1CCCCC1` [Example 75, 2,2-dicyclohexyl-N-{(3aS,4R,6aR)-2-[3-(trifluoromethyl)benzyl]octahydrocyclopenta[c]pyrrol-4-yl}acetamide], the IC50 came out at 0.45 µM. As for `CCC[C@H](NC)C(=O)N[C@H]1CC[C@H]2CN(Cc3ccccc3)C[C@H]21` [Example 359, N^1-[(3aS,4S,6aR)-2-benzyloctahydrocyclopenta[c]pyrrol-4-yl]-N^2-methyl-L-norvalinamide], the half-inhibitory concentration (IC50) was above 30 µM.

Take `O=C(N[C@H]1CC[C@@H]2CN(c3cccc(C(F)(F)F)n3)C[C@@H]21)c1ccc(-c2cccs2)o1` [Example 571, 5-(2-thienyl)-N-{(3aR,4S,6aS)-2-[6-(trifluoromethyl)pyridin-2-yl]octahydrocyclopenta[c]pyrrol-4-yl}-2-furamide]: the IC50 turned out to be 1.11 µM. Consider `Fc1ccc(-c2n[nH]cc2CN[C@H]2CC[C@@H]3CN(c4cccc(C(F)(F)F)n4)C[C@@H]32)cc1` [Example 672, (3aR,4S,6aS)-N-{[3-(4-fluorophenyl)-1H-pyrazol-4-yl]methyl}-2-[6-(trifluoromethyl)pyridin-2-yl]octahydrocyclopenta[c]pyrrol-4-amine], for which the IC50 worked out at 1.65 µM. Consider `CCC[C@H](NC)C(=O)N[C@H]1CC[C@@H]2CN(S(=O)(=O)c3cccnc3)C[C@@H]21` [Example 535, N^2-methyl-N^1-[(3aR,4S,6aS)-2-(pyridin-3-ylsulfonyl)octahydrocyclopenta[c]pyrrol-4-yl]-L-norvalinamide], for which the IC50 is above 30 µM.

Regarding `CS(=O)(=O)N1CCCC[C@H]1C(=O)N[C@@H]1CC[C@H]2CN(Cc3ccccc3)C[C@H]21` [Example 514, (2S)-N-[(3aS,4R,6aR)-2-benzyloctahydrocyclopenta[c]pyrrol-4-yl]-1-(methylsulfonyl)piperidine-2-carboxamide], the IC50 was above 22.5 µM.

Turning to `CN[C@@H](CC(C)C)C(=O)N[C@H]1CC[C@@H]2CN(c3ccnc(C(F)(F)F)n3)C[C@@H]21` [Example 723, N^2-methyl-N-{(3aR,4S,6aS)-2-[2-(trifluoromethyl)pyrimidin-4-yl]octahydrocyclopenta[c]pyrrol-4-yl}-L-leucinamide], the IC50 is 11.9 µM. Turning to `O=C(N[C@H]1CC[C@@H]2CN(c3cccc(C(F)(F)F)n3)C[C@@H]21)c1cccc(F)c1` [Example 564, 3-fluoro-N-{(3aR,4S,6aS)-2-[6-(trifluoromethyl)pyridin-2-yl]octahydrocyclopenta[c]pyrrol-4-yl}benzamide], the IC50 worked out at 0.34 µM. `O=C(N[C@H]1CC[C@@H]2CN(c3cccc(C(F)(F)F)n3)C[C@@H]21)c1ccccc1F` [Example 563, 2-fluoro-N-{(3aR,4S,6aS)-2-[6-(trifluoromethyl)pyridin-2-yl]octahydrocyclopenta[c]pyrrol-4-yl}benzamide]: the IC50 was 1.32 µM. For the compound `CN[C@@H](CC(C)C)C(=O)N[C@H]1CC[C@H]2CN(Cc3ccccc3)C[C@H]21` [Example 360, N^1-[(3aS,4S,6aR)-2-benzyloctahydrocyclopenta[c]pyrrol-4-yl]-N^2-methyl-L-leucinamide], the IC50 was above 30 µM. In the case of `CCC[C@H](NC)C(=O)N[C@@H]1CC[C@H]2CN(Cc3ccc(C(F)(F)F)cc3)C[C@H]21` [Example 371, N^2-methyl-N^1-{(3aS,4R,6aR)-2-[4-(trifluoromethyl)benzyl]octahydrocyclopenta[c]pyrrol-4-yl}-L-norvalinamide], the IC50 came to 8.88 µM.

Staying with this experiment, now noted: read-out: IC50 (μM) or percent inhibition (* indicates 3 minute incubation, otherwise 60 minute); IC50; 60 minute pre-incubation with compound; IMR32 cells, 80 mM KCl depolarization.
For `CC(C)C[C@@H](C(=O)N[C@@H]1CC[C@H]2CN(Cc3ccccc3)C[C@H]21)N(C)C(=O)OC(C)(C)C` [Example 151, N^1-[(3aS,4R,6aR)-2-benzyloctahydrocyclopenta[c]pyrrol-4-yl]-N^2-(tert-butyloxycarbonyl)-N^2-methyl-L-leucinamide], the IC50 was 0.71 µM. Take `CC(C)C[C@@H](C(=O)N[C@@H]1CC[C@H]2CN(Cc3cccc(C(F)(F)F)c3)C[C@H]21)N(C)C(=O)OC(C)(C)C` [Example 155, N^2-(tert-butyloxycarbonyl)-N^2-methyl-N^1-{(3aS,4R,6aR)-2-[3-(trifluoromethyl)benzyl]octahydrocyclopenta[c]pyrrol-4-yl}-L-leucinamide]: the IC50 is 0.69 µM. `O=C(N[C@H]1CC[C@H]2CN(Cc3ccncc3)C[C@H]21)C(C1CCCCC1)C1CCCCC1` [Example 72, 2,2-dicyclohexyl-N-[(3aS,4S,6aR)-2-(pyridin-4-ylmethyl)octahydrocyclopenta[c]pyrrol-4-yl]acetamide]: the IC50 turned out to be 3.23 µM. For the compound `CCC[C@H](NC)C(=O)N[C@H]1CC[C@@H]2CN(S(=O)(=O)Cc3ccc(C(F)(F)F)cc3)C[C@@H]21` [Example 549, N^2-methyl-N^1-((3aR,4S,6aS)-2-{[4-(trifluoromethyl)benzyl]sulfonyl}octahydrocyclopenta[c]pyrrol-4-yl)-L-norvalinamide], the IC50 is 2.73 µM. As for `CC(C)C[C@@H](NS(C)(=O)=O)C(=O)N[C@@H]1CC[C@H]2CN(Cc3cccc(C(F)(F)F)c3)C[C@H]21` [Example 171, N^2-(methylsulfonyl)-N^1-{(3aS,4R,6aR)-2-[3-(trifluoromethyl)benzyl]octahydrocyclopenta[c]pyrrol-4-yl}-D-leucinamide], the IC50 is 6.16 µM. As to `CC(C)C[C@@H](C(=O)N[C@@H]1CC[C@H]2CN(Cc3cccc(C(F)(F)F)c3)C[C@H]21)N(C)S(C)(=O)=O` [Example 169, N^2-methyl-N^2-(methylsulfonyl)-N^1-{(3aS,4R,6aR)-2-[3-(trifluoromethyl)benzyl]octahydrocyclopenta[c]pyrrol-4-yl}-L-leucinamide], the IC50 amounted to 0.92 µM.

Consider `CC(C)C(C(=O)N[C@H]1CC[C@@H]2CN(Cc3ccccc3)C[C@@H]21)c1ccc(Cl)cc1` (stereo partly drawn) [Example 43, N-[(3aR,4S,6aS)-2-benzyloctahydrocyclopenta[c]pyrrol-4-yl]-2-(4-chlorophenyl)-3-methylbutanamide], for which the 50% inhibitory concentration (IC50) was 1.49 µM. Regarding `CC(C)(C)CN[C@@H](CC(C)(C)C)C(=O)N[C@H]1CC[C@@H]2CN(S(=O)(=O)c3ccc(C(F)(F)F)cc3)C[C@@H]21` [Example 505, 4-methyl-N^2-neopentyl-N^1-((3aR,4S,6aS)-2-{[4-(trifluoromethyl)phenyl]sulfonyl}octahydrocyclopenta[c]pyrrol-4-yl)-L-leucinamide], the IC50 is 2.23 µM.

As to `CC(C)C[C@H](NC(=O)NC1CCCC1)C(=O)N[C@@H]1CC[C@H]2CN(Cc3cccc(C(F)(F)F)c3)C[C@H]21` [Example 181, N^2-[(cyclopentylamino)carbonyl]-N^1-{(3aS,4R,6aR)-2-[3-(trifluoromethyl)benzyl]octahydrocyclopenta[c]pyrrol-4-yl}-L-leucinamide], the IC50 stood at 0.94 µM.

For `O=C(N[C@H]1CC[C@H]2CN(CCCc3ccc(C(F)(F)F)cc3)C[C@H]21)C(C1CCCCC1)C1CCCCC1` [Example 70, 2,2-dicyclohexyl-N-((3aS,4S,6aR)-2-{3-[4-(trifluoromethyl)phenyl]propyl}octahydrocyclopenta[c]pyrrol-4-yl)acetamide], the IC50 was found to be 1.93 µM.

Turning to `CC(C)C[C@H](C(=O)N[C@H]1CC[C@H]2CN(Cc3cccc(C(F)(F)F)c3)C[C@H]21)N(C)C(=O)OC(C)(C)C` (relative stereo) [Example 139, N^2-(tert-butyloxycarbonyl)-N^2-methyl-N^1-{(3aS*,4S*,6aR*)-2-[3-(trifluoromethyl)benzyl]octahydrocyclopenta[c]pyrrol-4-yl}-D-leucinamide], the IC50 was 1.01 µM.
